Target: CDK4 (Homo sapiens, UniProt P11802+Q16531)
Assay: CDK4 percentage degradation in Calu-1 cells (Table 6)
Type: cell-based
Parameters: Cells that express cyclin D1-3 and CDK4/6 proteins were treated with heterobifunctional compounds; endogenous in cells; host or cells: Calu-1
Details: 16 hours; for inhibition at 0.04 µM: 40 nM; for inhibition at 0.2 µM: 200 nM
Procedure: Calu-(cells were treated with heterobifunctional compounds at 40 nM or 200 nM for 16 hours A: protein percentage degradation […]; B: protein percentage degradation <80%, and ≥50%; C: protein percentage degradation <50%, and ≥30%; D; protein percentage degradation […]; -, data not available.
Calu-1, T47D, MCF7, HCC1428 and other cells were cultured at 37° C. with 5% CO2 in RPMI 1640 or DMEM medium supplemented with 10% fetal bovine serum. Cells were authenticated using the short tandem repeat (STR) assays. Mycoplasma test results were negative. For palbo-resistant cell model, T47D cells were cultured long-term to resistance in the presence of 1 μM Palbociclib. Cells were deemed resistant when growing in the presence of Palbo at the same rate as parental cells.
Cultured cells were washed with cold PBS once and lysed in cold RIPA buffer supplemented with protease inhibitors and phosphatase inhibitors (Beyotime Biotechnology). The solutions were then incubated at 4 ? for 30 min with gentle agitation to fully lysed cells. Cell lysates were centrifuged at 13,000 rpm for 10 min at 4 ? and pellets were discarded. Total protein concentrations in the lysates were determined following BCA assays (Beyotime Biotechnology). Cell lysates were mixed with Laemmli loading buffer and heated at 99° C. for 5 min. Proteins were resolved on SDS-PAGE and visualized using Western ECL Substrate kits on a ChemiDoc MP Imaging system (Bio-Rad). Protein bands were quantitated using the Image Lab software provided by Bio-Rad.

Chain of CDK4 (P11802 2-303 limits assumed): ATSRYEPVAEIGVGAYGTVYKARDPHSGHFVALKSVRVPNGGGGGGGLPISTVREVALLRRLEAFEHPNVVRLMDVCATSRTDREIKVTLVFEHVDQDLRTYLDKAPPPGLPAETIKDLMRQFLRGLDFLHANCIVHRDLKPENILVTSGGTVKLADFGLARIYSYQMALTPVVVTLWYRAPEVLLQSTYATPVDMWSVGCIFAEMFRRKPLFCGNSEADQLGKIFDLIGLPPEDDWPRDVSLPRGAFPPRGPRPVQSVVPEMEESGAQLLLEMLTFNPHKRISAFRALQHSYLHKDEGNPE
Chain of CDK4 (P24385 whole entry partner): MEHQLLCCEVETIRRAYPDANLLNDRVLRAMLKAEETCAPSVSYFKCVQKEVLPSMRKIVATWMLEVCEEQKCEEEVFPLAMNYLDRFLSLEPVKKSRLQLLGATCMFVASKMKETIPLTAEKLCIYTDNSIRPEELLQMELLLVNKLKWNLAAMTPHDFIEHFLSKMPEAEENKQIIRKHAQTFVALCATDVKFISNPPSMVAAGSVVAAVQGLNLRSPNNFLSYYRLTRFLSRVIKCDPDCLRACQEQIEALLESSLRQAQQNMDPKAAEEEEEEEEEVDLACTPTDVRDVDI
Chain of CDK4 (Q16531 2-1140 limits assumed): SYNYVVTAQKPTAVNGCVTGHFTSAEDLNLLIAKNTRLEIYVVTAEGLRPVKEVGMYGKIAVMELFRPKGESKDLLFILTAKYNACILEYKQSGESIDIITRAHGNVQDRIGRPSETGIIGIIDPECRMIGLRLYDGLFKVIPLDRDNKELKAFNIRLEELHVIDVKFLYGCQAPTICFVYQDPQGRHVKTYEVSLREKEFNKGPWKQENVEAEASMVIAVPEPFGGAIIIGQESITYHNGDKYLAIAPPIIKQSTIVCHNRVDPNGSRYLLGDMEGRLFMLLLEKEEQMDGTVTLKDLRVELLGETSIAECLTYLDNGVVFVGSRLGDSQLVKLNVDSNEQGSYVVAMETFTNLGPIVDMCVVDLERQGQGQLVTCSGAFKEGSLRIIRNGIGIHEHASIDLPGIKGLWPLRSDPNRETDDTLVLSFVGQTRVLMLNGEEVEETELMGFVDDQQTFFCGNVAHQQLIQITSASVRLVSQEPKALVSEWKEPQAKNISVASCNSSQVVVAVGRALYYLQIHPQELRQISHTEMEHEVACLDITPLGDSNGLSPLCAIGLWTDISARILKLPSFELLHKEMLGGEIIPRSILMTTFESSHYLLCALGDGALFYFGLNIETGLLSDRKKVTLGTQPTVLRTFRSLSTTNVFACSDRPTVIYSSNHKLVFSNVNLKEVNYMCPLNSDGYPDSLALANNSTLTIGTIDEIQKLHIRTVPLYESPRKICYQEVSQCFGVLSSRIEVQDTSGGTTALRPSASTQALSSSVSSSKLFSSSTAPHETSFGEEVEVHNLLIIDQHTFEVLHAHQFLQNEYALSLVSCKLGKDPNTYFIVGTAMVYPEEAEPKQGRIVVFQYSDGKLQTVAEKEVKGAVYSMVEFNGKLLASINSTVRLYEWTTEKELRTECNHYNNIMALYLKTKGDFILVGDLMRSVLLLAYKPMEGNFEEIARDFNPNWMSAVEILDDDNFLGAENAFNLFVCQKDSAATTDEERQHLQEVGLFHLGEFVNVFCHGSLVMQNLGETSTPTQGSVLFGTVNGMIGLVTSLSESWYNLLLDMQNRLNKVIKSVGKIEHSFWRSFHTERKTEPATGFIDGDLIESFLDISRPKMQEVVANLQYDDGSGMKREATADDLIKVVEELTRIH

Row | inhibition at 0.04 µM | inhibition at 0.2 µM | SMILES
1 | < 30% | 50 to 80% | CNc1ccc(C(=O)Nc2ccc(N(C)C)nn2)c(N[C@H]2CC[C@H](CNC(=O)CN3CCN(c4ccc(Nc5ncc6c(C)c(C(C)=O)c(=O)n(C7CCCC7)c6n5)nc4)CC3)CC2)n1 [CPD-43, 2-((trans-4-((2-(4-(6-((6-Acetyl-8-cyclopentyl-5-methyl-7-oxo-7,8-dihydropyrido[2,3-d]pyrimidin-2-yl)amino)pyridin-3-yl)piperazin-1-yl)acetamido)methyl)cyclohexyl)amino)-N-(6-(dimethylamino)pyridazin-3-yl)-6-(methylamino)nicotinamide]
2 | < 30% | < 30% | CNc1ccc(C(=O)Nc2ccc(N(C)C)cc2)c(NCCCCCNC(=O)CN2CCN(c3ccc(Nc4ncc5c(C)c(C(C)=O)c(=O)n(C6CCCC6)c5n4)nc3)CC2)n1 [CPD-46, 2-((5-(2-(4-(6-((6-Acetyl-8-cyclopentyl-5-methyl-7-oxo-7,8-dihydropyrido[2,3-d]pyrimidin-2-yl)amino)pyridin-3-yl)piperazin-1-yl)acetamido)pentyl)amino)-N-(4-(dimethylamino)phenyl)-6-(methylamino)nicotinamide]
3 | < 30% | 50 to 80% | CNc1ccc(C(=O)Nc2ccc(N(C)C)cn2)c(NCCCCCNC(=O)CN2CCN(c3ccc(Nc4ncc5c(C)c(C(C)=O)c(=O)n(C6CCCC6)c5n4)nc3)CC2)n1 [CPD-47, 2-((5-(2-(4-(6-((6-Acetyl-8-cyclopentyl-5-methyl-7-oxo-7,8-dihydropyrido[2,3-d]pyrimidin-2-yl)amino)pyridin-3-yl)piperazin-1-yl)acetamido)pentyl)amino)-N-(5-(dimethylamino)pyridin-2-yl)-6-(methylamino)nicotinamide]

Further lines, the compound ahead of its results:

Row | SMILES | inhibition at 0.04 µM | inhibition at 0.2 µM
4 | CNc1ccc(C(=O)Nc2ccc(N(C)C)nn2)c(N2CCC(CCNC(=O)CN3CCN(c4ccc(Nc5ncc6c(C)c(C(C)=O)c(=O)n(C7CCCC7)c6n5)nc4)CC3)CC2)n1 [CPD-42, 2-(4-(2-(2-(4-(6-((6-Acetyl-8-cyclopentyl-5-methyl-7-oxo-7,8-dihydropyrido[2,3-d]pyrimidin-2-yl)amino)pyridin-3-yl)piperazin-1-yl)acetamido)ethyl)piperidin-1-yl)-N-(6-(dimethylamino)pyridazin-3-yl)-6-(methylamino)nicotinamide] | < 30% | < 30%
5 | CC(=O)c1c(C)c2cnc(Nc3ccc(N4CCN(CC(=O)NCCCCCNc5nc(C6CC6)ccc5C(=O)Nc5ccc(C)c(C6CC6)n5)CC4)cn3)nc2n(C2CCCC2)c1=O [CPD-44, 2-((5-(2-(4-(6-((6-Acetyl-8-cyclopentyl-5-methyl-7-oxo-7,8-dihydropyrido[2,3-d]pyrimidin-2-yl)amino)pyridin-3-yl)piperazin-1-yl)acetamido)pentyl)amino)-6-cyclopropyl-N-(6-cyclopropyl-5-methylpyridin-2-yl)nicotinamide] | < 30% | 30 to 50%
6 | CC(=O)c1c(C)c2cnc(Nc3ccc(N4CCN(CC(=O)NCCC5CC(Nc6nc(C7CC7)ccc6C(=O)Nc6ccc(C)c(C7CC7)n6)C5)CC4)cn3)nc2n(C2CCCC2)c1=O (centres unmarked) [CPD-45, 2-((3-(2-(2-(4-(6-((6-Acetyl-8-cyclopentyl-5-methyl-7-oxo-7,8-dihydropyrido[2,3-d]pyrimidin-2-yl)amino)pyridin-3-yl)piperazin-1-yl)acetamido)ethyl)cyclobutyl)amino)-6-cyclopropyl-N-(6-cyclopropyl-5-methylpyridin-2-yl)nicotinamide] | < 30% | < 30%
7 | CNc1ccc(C(=O)NC2CCC(N(C)C)CC2)c(NCCCCCNC(=O)CN2CCN(c3ccc(Nc4ncc5c(C)c(C(C)=O)c(=O)n(C6CCCC6)c5n4)nc3)CC2)n1 (centres unmarked) [CPD-48, 2-((5-(2-(4-(6-((6-Acetyl-8-cyclopentyl-5-methyl-7-oxo-7,8-dihydropyrido[2,3-d]pyrimidin-2-yl)amino)pyridin-3-yl)piperazin-1-yl)acetamido)pentyl)amino)-N-(4-(dimethylamino)cyclohexyl)-6-(methylamino)nicotinamide] | < 30% | < 30%

Reference: patent US20260297081A1, “COMPOUNDS AND METHODS OF TREATING CANCERS” (Cullgen Inc., priority 2023, published 2026)
